From publication PMC7159426 (American Journal of Respiratory and Critical Care Medicine, 2020)

Legend:
sheep TMEM16A = target: T1, sheep TMEM16A (Ovis aries, UniProt A0ACI6NM12); experiment: whole-cell patch clamp; type: cell-based
T1 sequence (A0ACI6NM12 1-1040): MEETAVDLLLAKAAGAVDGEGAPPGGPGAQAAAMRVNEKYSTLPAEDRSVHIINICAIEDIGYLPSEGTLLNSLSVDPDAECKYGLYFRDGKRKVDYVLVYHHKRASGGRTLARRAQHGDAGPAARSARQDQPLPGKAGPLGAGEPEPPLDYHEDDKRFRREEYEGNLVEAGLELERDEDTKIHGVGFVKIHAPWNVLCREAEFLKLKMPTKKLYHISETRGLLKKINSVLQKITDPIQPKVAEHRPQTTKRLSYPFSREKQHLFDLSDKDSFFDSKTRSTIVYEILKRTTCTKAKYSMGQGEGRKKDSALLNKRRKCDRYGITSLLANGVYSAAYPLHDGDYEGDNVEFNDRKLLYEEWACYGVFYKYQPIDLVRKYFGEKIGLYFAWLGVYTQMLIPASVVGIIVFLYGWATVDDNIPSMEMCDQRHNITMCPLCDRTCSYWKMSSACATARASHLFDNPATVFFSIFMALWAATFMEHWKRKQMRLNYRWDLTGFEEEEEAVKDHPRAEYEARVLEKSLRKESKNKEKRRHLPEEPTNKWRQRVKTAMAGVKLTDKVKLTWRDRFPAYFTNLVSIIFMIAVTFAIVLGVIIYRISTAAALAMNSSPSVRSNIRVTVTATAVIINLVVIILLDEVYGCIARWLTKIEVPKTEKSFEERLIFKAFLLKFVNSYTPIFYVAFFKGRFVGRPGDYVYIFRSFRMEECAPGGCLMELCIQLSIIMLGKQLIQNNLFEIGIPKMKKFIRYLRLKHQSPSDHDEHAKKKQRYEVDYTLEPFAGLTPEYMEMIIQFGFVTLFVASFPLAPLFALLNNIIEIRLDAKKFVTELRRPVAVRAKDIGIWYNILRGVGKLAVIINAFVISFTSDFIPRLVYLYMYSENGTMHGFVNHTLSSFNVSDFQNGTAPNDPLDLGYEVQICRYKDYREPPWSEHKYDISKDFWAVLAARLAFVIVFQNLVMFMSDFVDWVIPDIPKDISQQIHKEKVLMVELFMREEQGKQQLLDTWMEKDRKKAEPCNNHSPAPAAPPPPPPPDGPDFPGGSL

TMEM16A (anoctamin-1) = target: T2, TMEM16A (anoctamin-1) (Homo sapiens, UniProt Q5XXA6); experiment: whole-cell patch clamp; type: cell-based
T2 sequence (Q5XXA6 1-986): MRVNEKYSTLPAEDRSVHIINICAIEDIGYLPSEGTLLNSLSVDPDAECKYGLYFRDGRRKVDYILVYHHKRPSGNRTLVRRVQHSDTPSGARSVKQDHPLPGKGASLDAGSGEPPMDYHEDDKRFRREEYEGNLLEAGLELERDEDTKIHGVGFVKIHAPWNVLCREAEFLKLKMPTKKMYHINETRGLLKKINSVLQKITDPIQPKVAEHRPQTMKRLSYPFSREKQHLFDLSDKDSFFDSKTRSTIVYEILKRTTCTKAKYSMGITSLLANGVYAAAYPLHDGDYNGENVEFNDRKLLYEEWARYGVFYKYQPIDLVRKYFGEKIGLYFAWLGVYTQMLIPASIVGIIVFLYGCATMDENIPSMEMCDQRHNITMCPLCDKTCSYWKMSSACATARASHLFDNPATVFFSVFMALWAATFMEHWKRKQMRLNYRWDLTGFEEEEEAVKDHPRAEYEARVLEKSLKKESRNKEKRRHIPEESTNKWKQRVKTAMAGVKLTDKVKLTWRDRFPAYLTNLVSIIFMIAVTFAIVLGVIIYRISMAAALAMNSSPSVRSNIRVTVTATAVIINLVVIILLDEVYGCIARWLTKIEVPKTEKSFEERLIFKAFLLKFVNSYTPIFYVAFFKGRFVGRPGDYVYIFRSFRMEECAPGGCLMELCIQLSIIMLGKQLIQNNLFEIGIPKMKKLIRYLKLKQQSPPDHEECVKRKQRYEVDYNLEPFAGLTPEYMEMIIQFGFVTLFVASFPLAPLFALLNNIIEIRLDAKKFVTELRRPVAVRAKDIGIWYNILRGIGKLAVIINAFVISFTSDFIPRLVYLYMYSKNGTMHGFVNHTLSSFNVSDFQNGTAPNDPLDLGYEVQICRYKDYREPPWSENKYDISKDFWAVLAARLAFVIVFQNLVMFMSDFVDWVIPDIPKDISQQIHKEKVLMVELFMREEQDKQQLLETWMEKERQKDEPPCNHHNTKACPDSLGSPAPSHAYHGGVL

- EC50 (sheep TMEM16A): 127 ± 21 nM
- EC50 (TMEM16A (anoctamin-1)): 116 ± 16 nM
Substance: ETX001
